Test results as given in patent US20110281956A1, “USE OF THYMUS CAPITATUS EXTRACT, SATUREJA HORTENSIS EXTRACT, OR CARVACROL FOR TREATING METABOLIC DISEASES” (INDUSTRY-ACADEMIC COOPERATION FOUNDATION, YONSEI UNIVERSITY, priority 2009, published 2011).
Entries after “also recorded” stand apart in the source; their conditions may differ. Marks after values point to notes of the source that are not given here.

Legend:
[1] = system: preadipocytes 3T3-L1; experiment: Adipocyte differentiation inhibition, Oil Red O staining; assay type: cell-based, mouse; settings: 14 days
Experimental: The effect of carvacrol […] on adipocyte differentiation and growth was investigated using mouse adipocytes (3T3-L1). Preadipocytes 3T3L1 were placed on a 12-well plate and cultured to confluency in a 5% CO2 incubator at 37° C. using DMEM containing 1% penicillin-streptomycin, 1% non-essential amino acids and 10% fetal bovine serum (FBS). The cultured 3T3-L1 cells were differentiated into adipocytes by culturing for 2 days in a medium containing 0.5 mM methylisobutylxanthine/1 μM dexamethasone/1 μg/mL insulin (DMI). The cells were differentiated into mature adipocytes by further culturing for 2 days in DMEM containing 1 μg/mL insulin. Subsequently, they were further cultured for 10 days while changing DMEM every other day to obtain fully differentiated adipocytes.
Starting from the day when DMI was added to the 3T3-L1 cells, carvacrol was treated at concentrations of 0.1, 1, 10, 50 and 100 μM every other day. Carvacrol was purchased from Sigma and used after dissolving in DMSO. For negative control, only DMSO was used. After the culturing for a total of 14 days, when the cells were fully differentiated, the medium was removed and the fats contained in the differentiated adipocytes were stained. […]
To measure the triglyceride level of the differentiated 3T3-L1 cells, the stained cells were dissolved in 1 mL of isobutanol and OD value was measured at 600 nm.

[2] = system: C57BL/6J mice on high-fat diet; experiment: Carvacrol-containing high-fat diet fed to mice for 10 weeks: abdominal fat, blood lipids, glucose, insulin, liver lipids; assay type: in vivo, mouse
Experimental: High-fat diet (HFD: 40% fat calorie, 17 g lard+3% corn oil/100 g diet) was used to induce obesity. Carvacrol-containing diet had the same composition as the HFD except for containing 0.1% carvacrol. Normal diet (ND) was prepared according to AIN-76 rodent diet (see Table 1).
5-week-old male C57BL/6J mice were accustomed to the laboratory environment for a week while feeding solid feed. They were randomly divided into the ND, HFD and carvacrol groups according to the randomized block design and reared for 10 weeks. Diet was provided between 10 and 11 a.m. every day along with water. Food intake was measured every day, and body weight was measured every 3 days. In order to avoid transient body weight increase due to feed intake, body weight was measured 2 hours after removing the feedbox.
After fasting the test animal for at least 12 hours and anesthetizing with diethyl ether, blood, liver and abdominal fat tissue (epididymal, perirenal, mesenteric and retroperitoneal fat) were taken and weighed after washing with 0.1 M PBS (pH 7.4). The blood taken from the abdominal aorta was centrifuged at 1000×g for 15 minutes to isolate the serum.
Total cholesterol level, triglyceride level, glucose level and insulin level in plasma and lipid components in liver tissue were measured as follows. Total cholesterol level, triglyceride level and glucose level in plasma were measured 2 times using a commercially available kit (Bio Clinical System), and insulin level was measured by ELISA using a mouse Insulin kit (Shibayali, Japan). Lipid components were extracted from liver tissue according to Folch et al.'s method (Folch J, Lees M, Sloane Stanley G H. A simple method for the isolation and purification of total lipids from animal tissues. J. Biol. Chem. 1957; 226: 497-509) as follows. After adding 1 mL of distilled water to 0.25 g of liver tissue, the liver tissue was homogenized using a Polytron homogenizer (IKA-WERKE GmbH & Co., Ultra-Turrax, Staufen, Germany). After adding 5 mL of a chloroform/methanol mixture solution (2:1, v/v) to the homogenate and mixing well, centrifugation was performed at 1000×g for 10 minutes. Then, after separating the pellets and adding 2 mL of the chloroform/methanol mixture solution (2: 1, v/v) again to the supernatant, the same procedure was repeated to completely isolate the lipid components. After adding 3 mL of a chloroform/methanol/0.05% CaCl2 mixture solution (3:48:47, v/v/v) to thus obtained pellets and mixing for 1 minute, centrifugation was performed at 1000×g for 10 minutes. Finally, the resulting pellets were completely dried using nitrogen gas and the dried lipids were dissolved in 1 mL of methanol for analysis of the lipid components. Triglyceride level of the liver tissue was measured as in the plasma analysis using the same commercially available kit (Bio Clinical System).
In Table 2, the characters a, b and c indicate significance according to one-way ANOVA and Duncan's multiple range test (p<0.001). The atherogenic index was calculated by (total cholesterol−HDL cholesterol)/HDL cholesterol, and the insulin resistance index was calculated by 10^−3 pmol insulin×mmol glucose×L^−2.

[3] = system: leiomyosarcoma cells isolated from rats cancer-induced with 3,4-benzopyrene; settings: carvacrol at 67 μM for 24 hours or at 90 μM for 48 hours; cited from earlier work
[4] = 0.1% carvacrol in high-fat diet
[5] = 0.1% carvacrol in high-fat diet, FIG. 2
[6] = blood (plasma), 0.1% carvacrol in high-fat diet
[7] = liver tissue, 0.1% carvacrol in high-fat diet

**Q.** For `Cc1ccc(C(C)C)cc1O` [Carvacrol, carvacrol], which “fats stained with Oil Red O, OD value at 600 nm (cellular fat content)” value ([1]; 0.1-100 μM, FIG. 1B) is on record?
**A.** decreased the cellular fat content in a concentration-dependent manner; also recorded: decrease in OD value in a concentration-dependent manner

**Q.** And the “concentrations at which differentiation of the preadipocytes 3T3-L1 was decreased” value ([1]; concentration-dependent, 0.1, 1, 10, 50 and 100 μM every other day, FIG. 1A)?
**A.** ≥ 10 µM

**Q.** And the Liver weight [2, 4]?
**A.** 4.1 ± 0.1^b g/100 g body wt

**Q.** And the “decrease in LDL+VLDL cholesterol level in plasma (serum) vs HFD” value [2, 4]?
**A.** 46%

**Q.** And the “decrease in atherogenic index vs HFD” value [2, 4]?
**A.** 44%

**Q.** And the “decrease in cholesterol level in liver tissue vs HFD” value [2, 4]?
**A.** 42%

**Q.** What about the “decrease in free fatty acid level in liver tissue vs HFD” value [2, 4] of the same molecule?
**A.** 58%

**Q.** What about the “decrease in free fatty acid level in plasma (serum) vs HFD” value [2, 4] of the same molecule?
**A.** 80%

**Q.** What about the “decrease in liver weight (liver-to-body weight ratio) vs HFD” value [2, 4] of the same molecule?
**A.** 25%

**Q.** What about the “decrease in total cholesterol level in plasma (serum) vs HFD” value [2, 4] of the same molecule?
**A.** 29%

**Q.** And the “decrease in triglyceride level in liver tissue vs HFD” value [2, 4]?
**A.** 48%

**Q.** And the “decrease in triglyceride level in plasma (serum) vs HFD” value [2, 4]?
**A.** 30%

**Q.** And the “fasting blood sugar as compared to the HFD group” value [2, 4]?
**A.** significant decrease

**Q.** And the “insulin level as compared to the HFD group” value [2, 4]?
**A.** significant decrease

**Q.** And the “insulin resistance index as compared to the HFD group” value [2, 4]?
**A.** significant decrease

**Q.** And the “decrease in epididymal fat weight vs HFD” value [2, 5]?
**A.** 31%

**Q.** What about the “decrease in mesenteric fat weight vs HFD” value [2, 5] of the same molecule?
**A.** 51%

**Q.** And the “decrease in perirenal fat weight vs HFD” value [2, 5]?
**A.** 54%

**Q.** What about the “decrease in retroperitoneal fat weight vs HFD” value [2, 5] of the same molecule?
**A.** 23%

**Q.** What about the “decrease in total abdominal fat weight vs HFD” value [2, 5] of the same molecule?
**A.** 36%

**Q.** And the Insulin resistance index ([2]; 10^−3 pmol insulin×mmol glucose×L^−2, 0.1% carvacrol in high-fat diet)?
**A.** 0.68 ± 0.08^b

**Q.** What about the Atherogenic index ([2]; (total cholesterol−HDL cholesterol)/HDL cholesterol, 0.1% carvacrol in high-fat diet) of the same molecule?
**A.** 0.57 ± 0.18^b

**Q.** What about the Insulin ([2]; ELISA, 0.1% carvacrol in high-fat diet) of the same molecule?
**A.** 0.58 ± 0.06^b ng/mL

**Q.** And the Free fatty acid [2, 6]?
**A.** 280 ± 35^c uEq/L

**Q.** What about the HDL cholesterol [2, 6] of the same molecule?
**A.** 1.68 ± 0.16^ab mmol/L

**Q.** And the “LDL + VLDL cholesterol” value [2, 6]?
**A.** 1.11 ± 0.05^b mmol/L

**Q.** What about the Total cholesterol [2, 6] of the same molecule?
**A.** 2.73 ± 0.30^b mmol/L

**Q.** What about the Triglyceride [2, 6] of the same molecule?
**A.** 0.98 ± 0.14^b mmol/L

**Q.** What about the Glucose ([2]; fasting, blood (plasma), 0.1% carvacrol in high-fat diet) of the same molecule?
**A.** 6.83 ± 0.31^b mmol/L

**Q.** And the Cholesterol [2, 7]?
**A.** 45.4 ± 5.5^b μmol/g

**Q.** What about the Free fatty acid [2, 7] of the same molecule?
**A.** 10.3 ± 0.73^b uEq/g

**Q.** And the Triglyceride [2, 7]?
**A.** 22.0 ± 6.0^b μmol/g

**Q.** And the “production of the final product of platelet aggregation thromboxane B2” value [3]?
**A.** decreased

**Q.** And the “proliferation of cancer cells” value [3]?
**A.** inhibited
